Assay results: BindingDB's records for doi:10.1016/j.bmc.2009.03.040 (Institute For Medical Research, 2009)

Molecular target: T1, Lethal factor (Bacillus anthracis, UniProt P15917)
T1 sequence (P15917 whole entry): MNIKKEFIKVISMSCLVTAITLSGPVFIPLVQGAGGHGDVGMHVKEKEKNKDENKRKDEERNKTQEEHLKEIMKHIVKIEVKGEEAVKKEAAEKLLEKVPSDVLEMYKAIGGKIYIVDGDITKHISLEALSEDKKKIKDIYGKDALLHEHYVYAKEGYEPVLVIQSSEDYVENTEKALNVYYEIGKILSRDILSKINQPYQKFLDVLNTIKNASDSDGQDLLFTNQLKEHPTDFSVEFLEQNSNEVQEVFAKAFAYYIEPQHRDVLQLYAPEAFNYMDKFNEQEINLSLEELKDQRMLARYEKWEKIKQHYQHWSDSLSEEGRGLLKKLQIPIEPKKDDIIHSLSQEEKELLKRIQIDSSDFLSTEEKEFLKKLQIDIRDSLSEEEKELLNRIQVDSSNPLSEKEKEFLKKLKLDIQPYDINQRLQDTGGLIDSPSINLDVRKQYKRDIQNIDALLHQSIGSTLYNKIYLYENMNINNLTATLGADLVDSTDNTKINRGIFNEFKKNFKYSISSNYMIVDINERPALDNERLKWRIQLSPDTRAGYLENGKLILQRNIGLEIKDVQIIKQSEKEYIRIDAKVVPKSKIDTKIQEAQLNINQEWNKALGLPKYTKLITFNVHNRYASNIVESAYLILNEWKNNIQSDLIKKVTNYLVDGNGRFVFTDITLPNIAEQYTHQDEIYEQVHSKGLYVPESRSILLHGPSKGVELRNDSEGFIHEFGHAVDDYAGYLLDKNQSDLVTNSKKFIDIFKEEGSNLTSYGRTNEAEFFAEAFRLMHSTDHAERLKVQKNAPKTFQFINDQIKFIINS
Experiment: Inhibition of Bacillus anthracis lethal factor assessed as cleavage of MAPKK by fluorescence peptide cleavage assay

## COc1ccc(-c2ccc(S(=O)(=O)Nc3sccc3-c3nc4ccccc4s3)cc2)cc1 [N-(3-(benzo[d]thiazol-2-yl)thiophen-2-yl)-4'-methoxybiphenyl-4-sulfonamide]
  Ki: 1000 nM
